One series deals with MDA-MB-231/ATCC. The series is described as follows: NCI in vitro cytotoxicity (SRB, 48 h), Breast panel. The series is classed as cell-based. The conditions noted are these: Homo sapiens, Table 4, read-out: Comparative efficacy. The procedure:
(§1) The imidazothiazole-chalcone hybrids 7a, 7e, 7f, 8f and 19e have been tested against sixty human tumour cell lines derived from nine cancer types (leukemia, non-small cell lung cancer, colon cancer, CNS cancer, melanoma, ovarian cancer, renal cancer, prostate cancer and breast cancer) as per NCI protocol. For each compound, dose response curves for individual cell lines have been measured at a minimum of five concentrations at 10 fold dilutions. A protocol of 48 h continuous drug exposure has been used, and a sulforhodamine B (SRB) protein assay was used to estimate cell viability or growth. The concentration for 50% cell growth inhibition (GI50), total cell growth inhibition (TGI, 0% growth) and 50% cell death (LC50, […]) compared with the control has been calculated (Table-1).

A further series relates to MCF7. The description is as above. The series is classed as cell-based. The settings on record: Homo sapiens, MCF7; MCF-7; Table 4; read-out: Comparative efficacy. The method, then:
as §1

In another series the test system is SR. The series is described as follows: NCI in vitro cytotoxicity (SRB, 48 h), Leukemia panel. The series is classed as cell-based. The settings on record: Homo sapiens. The method, then:
as §1

9 molecules from patent US8916711B2, “Imidazothiazole-chalcone derivatives as potential anticancer agents and process for the preparation thereof” (Council of Scientific and Industrial Research, priority 2009, dated 2014) can be followed below.

On to `C1=Nc2c3c(ccc2=N1)=NCS3` [C, imidazobenzothiazole, reference compound], for which the results for the IC50 in the series on MDA-MB-231/ATCC and in the series on MCF7 were 43.2 µM and 32.5 µM, respectively.

As usually defined, the melting point is the temperature of the solid-liquid transition. `COc1ccc(C(=O)/C=C/c2c(-c3ccc(F)cc3)nc3sccn23)cc1OC` [Compound 8e, (E)-1-(3,4-dimethoxyphenyl)-3-(6-(4-fluorophenyl)imidazo[2,1-b]thiazol-5-yl)prop-2-en-1-one] gave a melting point of 221 to 223 °C.

In the case of `Cc1ccc(C(=O)/C=C/c2c(-c3ccc(F)cc3)nc3sccn23)cc1C` [Compound 9e, (E)-1-(3,4-dimethylphenyl)-3-(6-(4-fluorophenyl)imidazo[2,1-b]thiazol-5-yl)prop-2-en-1-one], the melting point lay in the range of 210 to 213 °C.

The molecule `COc1ccc(-c2nc3sccn3c2/C=C/C(=O)c2ccc3c(c2)OCO3)cc1` [Compound 11a, (E)-1-(benzo[d][1,3]dioxol-5-yl)-3-(6-(4-methoxyphenyl)imidazo[2,1-b]thiazol-5-yl)prop-2-en-1-one] had a melting point of 189 to 191 °C.

`O=C(/C=C/c1c(-c2ccc(F)cc2)nc2sccn12)c1ccc2ccccc2c1` [Compound 12e, (E)-3-(6-(4-fluorophenyl)imidazo[2,1-b]thiazol-5-yl)-1-(naphthalen-2-yl)prop-2-en-1-one] gave a melting point of 216 to 218 °C.

In the case of `O=C(/C=C/c1c(-c2ccc(F)cc2)nc2sccn12)c1ccc(-c2ccccc2)cc1` [Compound 13e, (E)-1-(biphenyl-4-yl)-3-(6-(4-fluorophenyl)imidazo[2,1-b]thiazol-5-yl)prop-2-en-1-one], the melting point lay within 194 to 196 °C.

In turn, `COc1ccc(-c2nc3sccn3c2/C=C/C(=O)c2cccs2)cc1` [Compound 16a, (E)-3-(6-(4-methoxyphenyl)imidazo[2,1-b]thiazol-5-yl)-1-(thiophen-2-yl)prop-2-en-1-one] yielded a melting point of 169 to 172 °C.

`COc1ccc(-c2nc3sccn3c2/C=C/C(=O)c2ccc[nH]2)cc1` [Compound 17a, (E)-3-(6-(4-methoxyphenyl)imidazo[2,1-b]thiazol-5-yl)-1-(1H-pyrrol-2-yl)prop-2-en-1-one] returned a melting point of 177 to 179 °C.

What is called GI50 is the concentration that inhibits growth by half. A high value points to lower sensitivity of the cells. In the series with SR, `COc1cc(C(=O)/C=C/c2c(C(F)(F)F)nc3sc(C)cn23)cc(OC)c1OC` [Compound 19f, (E)-3-(2-methyl-6-(trifluoromethyl)imidazo[2,1-b]thiazol-5-yl)-1-(3,4,5-trimethoxyphenyl)prop-2-en-1-one] yielded a GI50 of 0.8 µM.
